Columns and labels:
U87vIII [1] = assay: Annexin-FITC/7-AAD apoptosis assay, U87vIII cells; assay type: cell-based; conditions: 48 hours treatment
Experimental: (§1) FIGS. 4A-4D. […] U87 (4A-4B) and U87vIII (4C-4D) cells were treated with SC-38 for 48 hours and stained with Annexin-FITC/7-AAD. Apoptotic cells were visualized using the MUSE cell analyzer (Millipore).
(§2) FIGS. 6A-6D. […] U87 (A B) (6A-6B) and U87vIII (6C-6D) cells were treated with compound 1-08 for 48 hours and stained with Annexin-FITC/7-AAD. Apoptotic cells were visualized using the MUSE cell analyzer (Millipore). Results are means±SEM from 3 independent experiments. One-way ANOVA followed by Dunnet post-test was used to calculate statistical significance (***P<0.001).
(§3) U87 (FIGS. 4, A-B) and U87vIII (FIG. 4, C-D) cells were treated with SC-38 for 48 hours and stained with Annexin-FITC/7-AAD. Apoptotic cells were visualized using the MUSE cell analyzer (Millipore). Results are means±SEM from 3 independent experiments. One-way ANOVA followed by Dunnet post-test was used to calculate statistical significance (**P<0.01, ***P<0.001)
as §3, with “6,” for “4,”, “compound 1-08” for “SC-38”, “three” for “3”, “(***P<0.001).” for “(**P<0.01, ***P<0.001)”

U87 [2] = assay: Annexin-FITC/7-AAD apoptosis assay, U87 cells; assay type: cell-based; conditions: 48 hours treatment
Experimental: as §1, §2, §3
as §3, with “6,” for “4,”, “compound 1-08” for “SC-38”, “three” for “3”, “(***P<0.001).” for “(**P<0.01, ***P<0.001)”

U251 = assay: Alamar blue cell viability assay, U251 cells; assay type: cell-based; conditions: Homo sapiens, U-251; 72 hours of treatment; mean±SEM, three independent experiments
Experimental: (§4) U87 and U251 cell lines were obtained from the European Collection of Cell Cultures (ECACC) through CellBank Australia. U87-EGFRvIII cell line was obtained from their lab of origin (Nishikawa et al., 1994, Proc Natl Acad Sci USA 91: 7727-7731) and tested for EGFR amplification and mutation by immunoblotting and flow cytometry. Cells were cultured in DMEM medium (Invitrogen by Life Technologies, Carlsbad, Calif., USA) supplemented with 10% FBS (Sigma-Aldrich) at 37° C. and 5% CO2. Primary gliomaspheres (RN1, classical; WK1, mesenchymal) were derived from glioblastoma specimens (Day et al., 2013, Cancers 5: 357-371; Day et al., 2013, Cancer Cell 23: 238-248), maintained in StemPro NSC serum-free media supplemented with EGF and FGF (all Life Technologies), and grown on matrigel-coated flasks (Pollard et al., 2009, Cell Stem Cell 4: 568-580).
(§5) Cell viability was determined using Alamar blue assay after 72 hours of treatment (Table 2). EC50 values were calculated using non-linear regression on Graph Pad Prism version 5. c Log P values calculated using ChemBioDraw Software. Results are mean±SEM from three independent experiments performed in triplicates.

[3] = test system: RN1 gliomaspheres (classical); assay: AlamarBlue cell viability assay, RN1 gliomaspheres; assay type: cell-based; conditions: 72 h of drug treatment, FIG. 11A
Experimental: (§6) FIGS. 11A-11B. Efficacy of SC-38 (referred to as “CMPD1”), compound 1-08 (referred to as “cmpd 13”), compound 1-18 (referred to as “cmpd 7”), and compound 1-38 (referred to as “cmpd 10”) in primary gliomaspheres representing two glioblastoma subtypes. (11A) RN1, classical, and (11B) WK1, mesenchymal. Cellular efficacy (EC50) of test compounds was determined using AlamarBlue cell viability assay after 72 h of drug treatment. Data are mean±SEM from 3 independent experiments performed in triplicate.
as §4, with “568-580). […]” for “568-580).”

[4] = test system: WK1 gliomaspheres (mesenchymal); assay: AlamarBlue cell viability assay, WK1 gliomaspheres; assay type: cell-based; conditions: 72 h of drug treatment, FIG. 11B
Experimental: as §6, §4
The effect of SC-38, and compounds 1-08, 1-18 and 1-38 in a cell viability assay employing patient-derived gliomaspheres was also investigated. RN1 gliomaspheres representing glioblastoma of the classical subtype were most responsive to the treatment (FIG. 11, where SC-38 is referred to as “CMPD1”, compound 1-08 is referred to as “compound 13”, compound 1-18 is referred to as “compound 7”, and compound 1-38 is referred to as “compound 10”).

U87vIII [5] = assay: Alamar blue cell viability assay, U87vIII cells; assay type: cell-based; conditions: 72 hours of treatment; mean±SEM, three independent experiments
Experimental: as §4, §5

glioma cell lines = assay: Viability (Alamar Blue) and cytotoxicity (ToxiLight) in glioma cell lines; assay type: cell-based; conditions: 10 nM-10 μM, 72 hours
Experimental: Cells were treated with SC-38 (10 nM-10 μM) for 72 hours. Cells were subjected to viability testing (left, Alamar Blue viability assay, Invitrogen) and supernatant harvested for bioluminescent cytotoxicity analysis (right, ToxiLight™ bioassay kit, Lonza).

U87 [6] = assay: Alamar blue cell viability assay, U87 cells; assay type: cell-based; conditions: Homo sapiens, U-87 MG; 72 hours of treatment; mean±SEM, three independent experiments
Experimental: as §4, §5

[7] = Brain uptake in BALB/c mice; assay type: in vivo; conditions: 10 mg/kg intraperitoneally, brains harvested at 30 and 60 min, HPLC
Experimental: BALB/c mice were injected intraperitoneally with tested inhibitor (10 mg/kg) and brains harvested at 30 and 60 min. Solid-phase extraction was performed using brain homogenates and the amount of the test compound was determined with HPLC. Lapatinib data are from Polli, J. W. et al. “The Role of Efflux and Uptake Transporters in N-{3-Chloro-4-[(3-fluorobenzyl)oxy]phenyl}-6-[5-({[2-(methylsulfonyl)ethyl]amino}methyl)-2-furyl]-4-quinazolinamine (GW572016, Lapatinib) Disposition and Drug Interactions”, Drug Metabolism and Disposition 36, 695-701 (2008).

Porcine brain tubulin = target: T1, Porcine brain tubulin (Sus scrofa, UniProt P02550+P02554); assay: Fluorescence-based tubulin polymerisation assay; assay type: biochemical; conditions: 37° C., FIG. 10A
T1 construct: purchased Cytoskeleton, Colo., USA (Tubulin Polymerisation Assay kit); host or cells: porcine brain (tissue-purified)
T1 sequence (P02550 whole entry): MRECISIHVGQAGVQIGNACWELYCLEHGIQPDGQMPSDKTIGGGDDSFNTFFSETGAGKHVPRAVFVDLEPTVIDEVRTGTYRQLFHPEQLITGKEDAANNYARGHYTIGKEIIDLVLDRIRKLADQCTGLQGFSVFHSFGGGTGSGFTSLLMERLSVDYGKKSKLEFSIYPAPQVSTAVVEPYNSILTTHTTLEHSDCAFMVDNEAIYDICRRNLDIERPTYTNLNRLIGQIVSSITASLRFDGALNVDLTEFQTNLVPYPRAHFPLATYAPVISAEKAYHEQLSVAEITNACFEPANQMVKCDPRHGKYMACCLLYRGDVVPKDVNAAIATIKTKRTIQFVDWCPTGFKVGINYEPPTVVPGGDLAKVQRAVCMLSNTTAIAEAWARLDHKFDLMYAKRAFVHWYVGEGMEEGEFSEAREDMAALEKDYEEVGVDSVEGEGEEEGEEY
T1 sequence (P02554 whole entry): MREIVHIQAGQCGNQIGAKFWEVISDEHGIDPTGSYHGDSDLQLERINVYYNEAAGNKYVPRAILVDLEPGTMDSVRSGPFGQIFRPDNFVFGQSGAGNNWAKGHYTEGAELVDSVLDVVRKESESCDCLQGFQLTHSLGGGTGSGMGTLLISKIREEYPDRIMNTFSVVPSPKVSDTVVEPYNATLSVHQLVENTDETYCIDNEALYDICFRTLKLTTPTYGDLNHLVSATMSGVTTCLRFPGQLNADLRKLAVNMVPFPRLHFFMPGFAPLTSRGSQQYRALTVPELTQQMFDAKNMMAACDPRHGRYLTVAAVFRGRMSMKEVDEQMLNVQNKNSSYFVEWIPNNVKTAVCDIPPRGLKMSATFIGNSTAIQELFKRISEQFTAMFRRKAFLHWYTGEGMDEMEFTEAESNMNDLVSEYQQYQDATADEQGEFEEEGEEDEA
Experimental: FIGS. 10A-10D. […] (10A) Compound 1-08 inhibits tubulin polymerisation in vitro. Data are expressed as mean from at least 3 independent experiments; each data point was performed in triplicates. (10B) U87 cells treated with compound 1-08 (24 h) were stained with Alexa488-labelled anti-β-tubulin antibody (green) or DAPI (blue). Treatment profoundly disturbed the microtubule network and caused formation of multinucleated cell (white arrows). White scale bar represents 50 μm. Multinucleated cells were manually counted and at least 200 cells were counted for each sample. Data in the bar graph (10C) are expressed as mean±SEM (n=3; * P<0.05, *** P<0.001; 1-way ANOVA followed by Newman-Keuls posttest). (10D) U87 cells were treated with compound 1-08 (48 h), tubulin and DNA were stained as in (10B). Treatment with 1-08 caused defective mitotic spindle formation. Representative images from 3 independent experiments are shown. White scale bar represents 2 μm.
The effect of compound 1-08 on tubulin polymerisation and mitotic spindle formation was also investigated. The fluorescence-based tubulin polymerisation assay was conducted in the final volume of 55 μL using the Tubulin Polymerisation Assay kit (Cytoskeleton, Colo., USA) as per the manufacturer's instructions. Porcine brain tubulin was incubated with test compounds (paclitaxel, vinblastine and compound 1-08) at 37° C. and fluorescence was measured using FLUOstar Omega microplate reader (BMG Labtech, Ortenberg, Germany; excitation at 355 nm and emission at 460 nm). […] To test whether compound 1-08 alters microtubules in vivo, U87 glioblastoma cells were treated with compound 1-08 and the effect on the microtubules was determined by immunofluorescence staining of β-tubulin. […] The consequence of microtubule depolymerisation induced by compound 13 was disrupted spindle assembly (FIG. 10D). In untreated U87 cells undergoing mitosis, microtubules are assembled into bipolar spindles (control images).

| SMILES | EC50 (U251) | EC50 (U87vIII [5]) | EC50 (U87 [6]) | other results |
| --- | --- | --- | --- | --- |
| O=C(CCCc1ccc(-c2ccccc2F)cc1)Nc1ccc(O)cc1 [SC-38, reference compound] | 0.43 ± 0.1 µM | 0.68 ± 0.1 µM | 0.38 ± 0.1 µM | apoptosis, U87vIII (U87vIII [1]): induced apoptosis; apoptosis, U87 (U87 [2]): induced apoptosis; EC50 [3]: 0.26 µM; EC50 [4]: 0.91 µM; viability of glioma cell lines (glioma cell lines; Alamar Blue): decreases viability of glioma cell lines; cytotoxicity (ToxiLight) (glioma cell lines; supernatant): selectively cytotoxic |
| O=C(CCCc1ccc(-c2cncnc2)cc1)Nc1ccc(O)cc1 [Compound 1-01, N-(4-hydroxyphenyl)-4-(4-(pyrimidin-5-yl)phenyl)butanamide] | > 10 µM | > 10 µM | > 10 µM |  |
| O=C(CCCc1ccc(-c2cccnc2)cc1)Nc1ccc(O)cc1 [Compound 1-38, N-(4-hydroxyphenyl)-4-(4-(pyridin-3-yl)phenyl)butanamide] | 1.2 ± 0.1 µM | 4.3 ± 0.3 µM | 4.6 ± 0.8 µM |  |
| NCc1ccc(-c2ccc(CCCC(=O)Nc3ccc(O)cc3)cc2)cc1 [Compound 1-07, 4-(4′-(aminomethyl)-[1,1′-biphenyl]-4-yl)-N-(4-hydroxyphenyl)butanamide] | 1.5 ± 0.3 µM | 3.1 ± 1 µM | 1.8 ± 0.3 µM |  |
| CC(=O)O[C@H]1C(=O)[C@@]2(C)[C@H]([C@H](OC(=O)c3ccccc3)[C@]3(O)C[C@H](OC(=O)[C@H](O)[C@@H](NC(=O)c4ccccc4)c4ccccc4)C(C)=C1C3(C)C)[C@]1(OC(C)=O)CO[C@@H]1C[C@@H]2O [paclitaxel] |  |  |  | effect on tubulin polymerisation compared to control (Porcine brain tubulin): enhanced tubulin polymerisation |
| COc1ncc(-c2ccc(CCCC(=O)Nc3ccc(O)cc3)cc2)cn1 [Compound 1-19, N-(4-hydroxyphenyl)-4-(4-(2-methoxypyrimidin-5-yl)phenyl)butanamide] | > 10 µM | > 10 µM | > 10 µM |  |
| CC[C@]1(O)C[C@@H]2CN(CCc3c([nH]c4ccccc34)[C@@](C(=O)OC)(c3cc4c(cc3OC)N(C)[C@H]3[C@@](O)(C(=O)OC)[C@H](OC(C)=O)[C@]5(CC)C=CCN6CC[C@]43[C@@H]65)C2)C1 [vinblastine] |  |  |  | effect on tubulin polymerisation compared to control (Porcine brain tubulin): inhibited tubulin polymerisation in a dose-dependent manner |

More lines, main results first:

| EC50 (U251) | EC50 (U87vIII [5]) | EC50 (U87 [6]) | SMILES | other results |
| --- | --- | --- | --- | --- |
| 1.6 ± 0.2 µM | 1.7 ± 0.1 µM | 1.4 ± 0.2 µM | O=C(CCCc1ccc(-c2cccnc2F)cc1)Nc1ccc(O)cc1 [Compound 1-18, 4-(4-(2-fluoropyridin-3-yl)phenyl)-N-(4-hydroxyphenyl)butanamide] | EC50 [4]: 2 µM; brain uptake / crossing of the BBB [7]: readily crossed the BBB |
| 1.65 ± 0.1 µM | 3.4 ± 0.4 µM | 2.9 ± 0.9 µM | O=C(CCCc1ccc(-c2ccc(F)nc2F)cc1)Nc1ccc(O)cc1 [Compound 1-22, 4-(4-(2,6-difluoropyridin-3-yl)phenyl)-N-(4-hydroxyphenyl)butanamide] |  |
| > 10 µM | > 10 µM | 4.8 ± 1.2 µM | O=C(CCCc1ccc(-c2ccc(F)nc2)cc1)Nc1ccc(O)cc1 [Compound 1-21, 4-(4-(6-fluoropyridin-3-yl)phenyl)-N-(4-hydroxyphenyl)butanamide] |  |
| 4.6 ± 0.2 µM | > 10 µM | 6.6 ± 0.9 µM | O=C(CCCc1ccc(-c2cccnc2F)cc1)Nc1ccccc1 [Compound 1-20, 4-(4-(2-fluoropyridin-3-yl)phenyl)-N-phenylbutanamide] |  |
| > 10 µM | > 10 µM | > 10 µM | O=C(CCCc1ccc(Br)cc1)Nc1ccc(O)cc1 [Compound 1-17, 4-(4-bromophenyl)-N-(4-hydroxyphenyl)butanamide] |  |

Source: patent US10745355B2, “Anti-cancer compounds” (THE UNIVERSITY OF SYDNEY, priority 2015, dated 2020)
